One data set has as its system L1210 mouse leucemia. Kind of data set: inhibition of colony formation in soft agar (colony assay), L1210. In kind it is cell-based. Particulars: for Cytotoxicity in vitro EC90 L 1210: concentration giving 90% inhibition of colony formation, determined by graph, 6 days incubation; for activity against L 1210 cells (ranking in words): among the compounds of the table. As for the experimental part:
(§1) The effectiveness of the compounds defined in accordance with the invention was tested as to their in vitro cytotoxicity. The investigations about inhibition of colony formation in soft agar (colony assay) were carried out in conformity with the method of Hamburger and Salmon (A. W. Hamburger, S. E. Salmon, "Primary Bioassay of Human Myeloma Stem Cells", J. Clin. Invest. 60: 846-854 (1977); A. W. Hamburger and S. E. Salmon, "Primary Bioassay of Human Tumor Stem Cells", Science 197: 461-463 (1977)). The tumor cells were incubated in RPMI-1640 medium with 20% fetal calf serum and 0.3% agar in the presence of different concentrations of the test substance at 37° C., 95% relative air humidity and 5% CO2. Triple values were taken in each instance. The incubation time was 6 days for L1210 mouse leucemia and 8 days for KB human mucous-membrane carcinoma. The colonies formed (>50 cells) were subsequently counted.

Data set [1] deals with KB human mucous-membrane carcinoma. Kind of data set: inhibition of colony formation in soft agar (colony assay), KB. In kind it is cell-based. Particulars: for activity against KB cells (ranking in words): among the compounds of the table; for Cytotoxicity in vitro EC90 KB: concentration giving 90% inhibition of colony formation, determined by graph, 8 days incubation. As to the method:
as §1

Data set [2] has as its system small-cell bronchial carcinoma LXFS 538. Kind of data set: human tumors transplanted into the naked mouse, LXFS 538. It is filed as in vivo. Particulars: LXFS 538 xenograft, 45 mg/kg i.p. per day 1.5 and 9. As to the method:
(§2) The compound H-LYS(LYS)-NHC18 H37.3HCL (D-21621) was tested separately on human tumors transplanted into the naked mouse. […] This tumor is resistant to all standard cytostatic agents.
A general note: In xenograft studies the graft and the host belong to different species.

Data set [3] deals with ovarian carcinoma OVXF 899. Kind of data set: human tumors transplanted into the naked mouse, OVXF 899. Particulars: OVXF 899 xenograft, same conditions (45 mg/kg i.p. per day 1.5 and 9). In kind it is in vivo. As to the method: as §2

A value given as a limit tells only on which side of the number the result lay.

As for `Br.Br.Br.CCCCCCCCCCCCCCCCCCNC(=O)C(N)CCCCNC(=O)C(N)CCCCN` [D-20 994, H--LYS(LYS)--NHC18 H37.3HBr], the “Cytotoxicity in vitro EC90 L 1210” value with L1210 mouse leucemia is 3.2 mg/L. For the same molecule, in data set [1], the “activity against KB cells (ranking in words)” value (“activity against KB cells” for short) is reported as “highest activity” and the “Cytotoxicity in vitro EC90 KB” value was 0.8 mg/L.

For `CCCCCCCCCCCCCCCCCCNC(=O)C(N)CCCNC(=O)C(N)CCCN.Cl.Cl.Cl` [D-20 989, H--ORN(ORN)--NHC18 H37.3HCL], the “Cytotoxicity in vitro EC90 L 1210” value in the data set with L1210 mouse leucemia was 3.1 mg/L. Also, in data set [1], the “Cytotoxicity in vitro EC90 KB” value amounted to 1.3 mg/L.

`CCCCCCCCCCCCCCCCCCNC(=O)C(CCCCN)NC(=O)C(N)CCCCN` [D-22 267, H--LYS--LYS--NHC18 H37]: the “Cytotoxicity in vitro EC90 L 1210” value in the data set with L1210 mouse leucemia amounted to 3.1 mg/L. In addition, in data set [1], the “activity against KB cells” value is listed as “highest activity” and the “Cytotoxicity in vitro EC90 KB” value stood at 0.3 mg/L.

In the case of `CCCCCCCCCCCCCCCCCCNC(=O)C(N)CCCCNC(=O)C(N)CCCCN.Cl.Cl.Cl` [D-21 621, H--LYS(LYS)--NHC18 H37.3HCl], in the data set on L1210 mouse leucemia, the “Cytotoxicity in vitro EC90 L 1210” value was determined as 2.2 mg/L. For the same molecule, the “Cytotoxicity in vitro EC90 KB” value in data set [1] worked out at 1.4 mg/L. In addition, the tumor inhibition is recorded as 37 % of the control in data set [2] and 46 % of the control in data set [3].

With “H--ORN[(ORN)ORN]--NHC18 H37 4HCl [D-20 990]”, the “Cytotoxicity in vitro EC90 L 1210” value in the data set on L1210 mouse leucemia was more than 10 mg/L. Besides, the “Cytotoxicity in vitro EC90 KB” value in data set [1] is 1.7 mg/L.

Turning to “H--LYS[(LYS)LYS]--NHC18 h37.4HBr [D-20 995]”, the “Cytotoxicity in vitro EC90 L 1210” value in the data set with L1210 mouse leucemia was more than 3 mg/L. In data set [1], the “activity against KB cells” value is recorded as “highest activity” and the “Cytotoxicity in vitro EC90 KB” value came out at 0.9 mg/L.

With `CCCCCCCCCCCCCCCCCCNC(=O)[C@H](N)CCCCNC(=O)[C@H](N)CCCCN.Cl.Cl.Cl` [D-22 628, H--D--LYS(D--LYS)--NHC18 H37.3HCL], in the data set on L1210 mouse leucemia, the “activity against L 1210 cells (ranking in words)” value is on record as “highest activity” and the “Cytotoxicity in vitro EC90 L 1210” value came to 0.8 mg/L. The “Cytotoxicity in vitro EC90 KB” value in data set [1] came to 1.1 mg/L.

Regarding `CCCCCCCCCCCCCCNC(=O)C1CSCN1` [D-21 979, H--THZ--NHC14 H29], in the data set with L1210 mouse leucemia, the “activity against L 1210 cells (ranking in words)” value is given as “highest activity” and the “Cytotoxicity in vitro EC90 L 1210” value was determined as 0.3 mg/L. Further, in data set [1], the “Cytotoxicity in vitro EC90 KB” value was determined as 3.1 mg/L.

`CCCCCCCCCCCCCCCCNC(=O)C1CSCN1` [D-21 980, H--THZ--NHC16 H33]: in the data set with L1210 mouse leucemia, the “Cytotoxicity in vitro EC90 L 1210” value was 3.4 mg/L. For the same molecule, the “Cytotoxicity in vitro EC90 KB” value in data set [1] is 3.1 mg/L.

Values taken from patent publication US5770574A, “Long-chain alkylamides of amino acids and peptides with anti-proliferative and anti-inflammatory properties” (ASTA Medica Aktiengesellschaft, priority 1994, dated 1998).
